Laboratory results: patent publication US5510371A, “Inhibitors of farnesyl-protein transferase” (Merck & Co., Inc., priority 1994, dated 1996)

Molecular target: T1, human recombinant farnesyl-protein transferase (Homo sapiens, UniProt P49354+P49356)
T1 construct: made in house; host or cells: Escherichia coli
Experiment: In vitro inhibition of ras farnesyl transferase
Format: biochemical
Conditions: 50 nM 3H-FPP, 0.1 μM ras-CVIM, 2 μg human recombinant FPTase, pH 7.5, 30 minutes at 31° C.; read-out: LC50 (nM) (IC50: concentration of the test compound which gives 50% inhibition of FPTase)
Description: In vitro inhibition of ras farnesyl transferase
Human FPTase was expressed in Escherichia coli and then the recombinant protein was purified as described by Omer, et al., Biochemistry 32, 5167 (1993). The assay was performed in a volume of 100 μl containing 100 mM N-(2-hydroxy ethyl) piperazine-N'-(2-ethane sulfonic acid) (HEPES), pH 7.5, 5 mM MgCl2, 5 mM dithiothreitol (DTT), 10 μM ZnCl2, 0.1% (w/v) polyethylene glycol 20,000, 50 nM 3H!-Farnesyl Pyrophosphate ( 3H!-FPP, […], NEN-DuPont), 0.1 μM ras-CVIM and 2 μg of human recombinant farnesyl-protein transferase. The assay was run in the presence of the compound(s) for 30 minutes at 31° C. and then quenched by placing the tubes in an ice bath for 5 minutes. Trichloracetic acid (TCA, 0.1 ml of 30% (v/v) in ethanol followed by 50 μl of 0.25% (w/v) Bovine Serum Albumin in water was added to the tubes, vortexed for 5 minutes then placed in a 37° C. water bath for 30 minutes to facilitate the hydrolysis of the unused farnesyl pyrophosphate. The precipitate was collected on a Packard double thickness filtermat, using a Tomtec Mach II Cell Harvester and washed with 8 ml of 100% Ethanol. The filtermats were dried in a microwave oven and counted in a LKB Betaplate counter. The compounds were dissolved in dimethyl sulfoxide and were diluted 20-fold into the assay.
Inhibition of RAS farnesylation by compounds of this invention* […]

T1 sequence (P49356 whole entry, one chain of several): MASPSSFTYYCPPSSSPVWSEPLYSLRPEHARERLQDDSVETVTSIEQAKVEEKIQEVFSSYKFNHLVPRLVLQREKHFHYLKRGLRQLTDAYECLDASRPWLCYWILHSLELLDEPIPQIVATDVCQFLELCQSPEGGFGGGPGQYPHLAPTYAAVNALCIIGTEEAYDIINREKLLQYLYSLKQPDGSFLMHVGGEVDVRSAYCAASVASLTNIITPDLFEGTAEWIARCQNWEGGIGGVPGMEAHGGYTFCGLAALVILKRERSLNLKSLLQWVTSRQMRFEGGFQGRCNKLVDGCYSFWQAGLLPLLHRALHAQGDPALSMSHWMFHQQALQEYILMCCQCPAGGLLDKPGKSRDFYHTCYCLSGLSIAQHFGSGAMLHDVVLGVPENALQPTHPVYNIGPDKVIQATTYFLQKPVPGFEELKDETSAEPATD

CCC(CC(C)C(=O)O)C(=O)CCC1=CC(C)CC(C)=CC(C)C(O)C(C)CCC(CCCCC=CC(C)CCC(C)OC(=O)CC(CC(=O)O)C(=O)O)OC(=O)CC(C(=O)O)CC(=O)OC1 (stereo not shown) [Compound 1, 1,2,3-propanetricarboxylic acid 1-10-4-carboxy 19-(6-carboxy-4-ethyl-3-oxoheptyl)-12-hydroxy-11,13,15,17-tetramethyl-2,6-dioxo-1,7-dioxacycloeiocosa-14,18-dien-8-yl!-1,4-dimethyl-5-decenyl! ester]
IC50: 230 nM
